Measured values as given in ChEMBL document CHEMBL3045361, “Novel GABA-AT inhibitors: QSAR and docking based virtual screening of phenyl substituted -phenyl ethylidene hydrazine analogues” (Med Chem Res, 2011).

Target: 4-aminobutyrate aminotransferase, mitochondrial (Homo sapiens) (UniProt P80404)
Assay: Inhibition of GABA-AT (unknown origin)
Set-up: concentration or dose not given beside the values
Details: concentration not given here

Sequence of 4-aminobutyrate aminotransferase, mitochondrial (Homo sapiens) (P80404 whole entry): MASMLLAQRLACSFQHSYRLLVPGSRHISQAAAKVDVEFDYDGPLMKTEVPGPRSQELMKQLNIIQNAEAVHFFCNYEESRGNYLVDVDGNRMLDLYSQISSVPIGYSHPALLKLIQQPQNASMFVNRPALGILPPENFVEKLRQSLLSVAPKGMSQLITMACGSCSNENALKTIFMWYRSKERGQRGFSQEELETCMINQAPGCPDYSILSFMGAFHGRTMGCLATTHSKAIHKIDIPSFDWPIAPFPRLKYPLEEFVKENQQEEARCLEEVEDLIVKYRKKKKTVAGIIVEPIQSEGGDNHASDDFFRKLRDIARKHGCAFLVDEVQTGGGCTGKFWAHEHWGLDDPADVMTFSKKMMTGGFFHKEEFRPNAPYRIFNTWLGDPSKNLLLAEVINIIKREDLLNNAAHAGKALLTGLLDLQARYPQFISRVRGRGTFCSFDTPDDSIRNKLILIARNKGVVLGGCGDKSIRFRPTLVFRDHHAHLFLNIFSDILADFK

| inhibition [%] | SMILES |
| --- | --- |
| 70.4 | Cc1ccc(C/C=N/N)cc1 |
| 77.6 | COc1cccc(C/C=N/N)c1 |
| 56.1 | N/N=C/Cc1ccccc1Cl |
| 61.6 | N/N=C/Cc1ccc(F)cc1 |
| 60.1 | COc1ccccc1C/C=N/N |
| 59 | N/N=C/Cc1ccc(Cl)cc1Cl |
| 46.3 | N/N=C/Cc1ccccc1C(F)(F)F |

Second part, the compound before the results:

| SMILES | inhibition [%] |
| --- | --- |
| N/N=C/Cc1ccccc1F | 62.9 |
| COc1ccc(C/C=N/N)cc1 | 66.6 |
| Cc1ccccc1C/C=N/N | 51.3 |
| Cc1cccc(C/C=N/N)c1 | 75.4 |
| N/N=C/Cc1ccc(C(F)(F)F)cc1 | 33.2 |
| N/N=C/Cc1cccc(F)c1 | 72.5 |
| N/N=C/Cc1cccc(C(F)(F)F)c1 | 76 |
| N/N=C/Cc1cccc(Cl)c1 | 74.9 |
| N/N=C/Cc1ccc(Cl)cc1 | 54.2 |
| N/N=C/Cc1ccccc1 | 75.4 |
